Compound: Cn1cnc2c(F)c(Nc3ccc(Br)cc3Cl)c(C(=O)NOCCO)cc21 [Selumetinib] + Cc1cc(Nc2cc(N3CCN(C)CC3)nc(Sc3ccc(NC(=O)C4CC4)cc3)n2)n[nH]1 [Tozasertib] (partner 0.1 µM)
Test: relative viability (nuclei count vs DMSO), 5 days (fraction); higher = more cells survive
Conditions: first compound 0.02 µM
Procedure, shortened: (§1)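 Cells from lung cancer lines were seeded into 1536-well plates and, one day later, dosed by pin tool. Treatments were either a single drug or a fixed dose of an anchor drug with five library-drug doses (not always all listed) in √10 steps. After 5 days, nuclei were stained in a one-step fixation (final 0.05% Triton X-100, 1% formaldehyde, 1 ug/ml Hoechst) and counted on 4× images, and relative viability is the treated-to-vehicle nuclei ratio, as the median of duplicate plates.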

Point of comparison: HARA, relative viability 0.108. Against it:
- NCI-H522 — higher, 0.567
- NCI-H1623 — higher, 0.343
- PC-14 — higher, 0.529
- NCI-H1666 — higher, 0.589
- NCI-H1755 — higher, 0.597
- NCI-H2023 — higher, 0.362
- EPLC-272H — higher, 0.185
- LCLC-97TM1 — higher, 0.201
- PC-3 [JPC-3] — higher, 0.991
- LOU-NH91 — higher, 0.648
- NCI-H647 — higher, 0.409
- NCI-H23 — higher, 0.36
- EMC-BAC-2 — higher, 0.383
- NCI-H2126 — higher, 0.784
- HCC-44 — higher, 1.12
- NCI-H1734 — higher, 0.244
- NCI-H650 — higher, 0.85
- LK-2 — higher, 0.17
- NCI-H2228 — higher, 0.247
- NCI-H2342 — higher, 0.461
- SK-MES-1 — higher, 1.08
- COR-L23 — higher, 0.211
- COR-L 105 — higher, 0.364
- LC-2-ad — higher, 0.517
- LXF-289 — higher, 0.219
- ChaGo-K-1 — higher, 0.212
- NCI-H2170 — higher, 0.746
- NCI-H322M — higher, 0.391
- HCC-78 — higher, 0.703
- SW 900 — higher, 0.609
- NCI-H1648 — higher, 0.54
- HCC-366 — higher, 0.127

Same assay, conditions: first compound 0.06325 µM

Point of comparison: NCI-H1623, relative viability 0.342. Against it:
- NCI-H522 — higher, 0.515
- PC-14 — higher, 0.486
- NCI-H1666 — higher, 0.489
- NCI-H1755 — higher, 0.552
- NCI-H2023 — lower, 0.317
- EPLC-272H — lower, 0.181
- LCLC-97TM1 — lower, 0.255
- PC-3 [JPC-3] — higher, 0.813
- LOU-NH91 — higher, 0.679
- NCI-H647 — lower, 0.168
- NCI-H23 — lower, 0.301
- EMC-BAC-2 — higher, 0.361
- NCI-H2126 — higher, 0.741
- HCC-44 — higher, 0.93
- NCI-H1734 — lower, 0.251
- NCI-H650 — higher, 0.692
- LK-2 — lower, 0.189
- NCI-H2228 — lower, 0.255
- NCI-H2342 — higher, 0.546
- SK-MES-1 — higher, 0.894
- HARA — lower, 0.115
- COR-L23 — lower, 0.187
- COR-L 105 — lower, 0.316
- LC-2-ad — higher, 0.391
- LXF-289 — lower, 0.229
- ChaGo-K-1 — lower, 0.237
- NCI-H2170 — higher, 0.848
- NCI-H322M — higher, 0.418
- HCC-78 — higher, 0.44
- SW 900 — higher, 0.517
- NCI-H1648 — higher, 0.488
- HCC-366 — lower, 0.109

Same assay, conditions: first compound 0.2 µM

Point of comparison: SK-MES-1, relative viability 0.949. Against it:
- NCI-H522 — lower, 0.537
- NCI-H1623 — lower, 0.351
- PC-14 — lower, 0.532
- NCI-H1666 — lower, 0.528
- NCI-H1755 — lower, 0.563
- NCI-H2023 — lower, 0.267
- EPLC-272H — lower, 0.34
- LCLC-97TM1 — lower, 0.216
- PC-3 [JPC-3] — lower, 0.769
- LOU-NH91 — lower, 0.606
- NCI-H647 — lower, 0.319
- NCI-H23 — lower, 0.224
- EMC-BAC-2 — lower, 0.349
- NCI-H2126 — lower, 0.728
- HCC-44 — lower, 0.747
- NCI-H1734 — lower, 0.234
- NCI-H650 — lower, 0.864
- LK-2 — lower, 0.221
- NCI-H2228 — lower, 0.211
- NCI-H2342 — lower, 0.473
- HARA — lower, 0.111
- COR-L23 — lower, 0.171
- COR-L 105 — lower, 0.309
- LC-2-ad — lower, 0.393
- LXF-289 — lower, 0.191
- ChaGo-K-1 — lower, 0.222
- NCI-H2170 — lower, 0.661
- NCI-H322M — lower, 0.369
- HCC-78 — lower, 0.436
- SW 900 — lower, 0.564
- NCI-H1648 — lower, 0.487
- HCC-366 — lower, 0.104

Same assay, conditions: first compound 0.6325 µM

Point of comparison: LC-2-ad, relative viability 0.386. Against it:
- NCI-H522 — higher, 0.505
- NCI-H1623 — lower, 0.361
- PC-14 — higher, 0.434
- NCI-H1666 — higher, 0.554
- NCI-H1755 — higher, 0.558
- NCI-H2023 — lower, 0.253
- EPLC-272H — lower, 0.283
- LCLC-97TM1 — lower, 0.223
- PC-3 [JPC-3] — higher, 0.655
- LOU-NH91 — higher, 0.534
- NCI-H647 — lower, 0.358
- NCI-H23 — lower, 0.31
- EMC-BAC-2 — higher, 0.387
- NCI-H2126 — higher, 0.638
- HCC-44 — higher, 0.701
- NCI-H1734 — lower, 0.227
- NCI-H650 — higher, 0.533
- LK-2 — lower, 0.144
- NCI-H2228 — lower, 0.204
- NCI-H2342 — higher, 0.576
- SK-MES-1 — higher, 0.676
- HARA — lower, 0.102
- COR-L23 — lower, 0.163
- COR-L 105 — lower, 0.322
- LXF-289 — lower, 0.159
- ChaGo-K-1 — lower, 0.204
- NCI-H2170 — higher, 0.657
- NCI-H322M — lower, 0.366
- HCC-78 — higher, 0.408
- SW 900 — higher, 0.478
- NCI-H1648 — higher, 0.456
- HCC-366 — lower, 0.0897

Compound: CC1(C)CCC(CN2CCN(c3ccc(C(=O)NS(=O)(=O)c4ccc(NCC5CCOCC5)c([N+](=O)[O-])c4)c(Oc4cnc5[nH]ccc5c4)c3)CC2)=C(c2ccc(Cl)cc2)C1 [Venetoclax] + CCNC(=O)c1noc(-c2cc(C(C)C)c(O)cc2O)c1-c1ccc(CN2CCOCC2)cc1 [Luminespib] (partner 0.01 µM)
Test: as above
Conditions: first compound 0.01 µM
Procedure, shortened: as §1

Point of comparison: NCI-H2342, relative viability 0.807. Against it:
- NCI-H522 — higher, 1.14
- NCI-H1623 — lower, 0.545
- PC-14 — lower, 0.175
- NCI-H1666 — higher, 0.894
- NCI-H1755 — lower, 0.534
- NCI-H2023 — lower, 0.744
- EPLC-272H — lower, 0.64
- LCLC-97TM1 — lower, 0.709
- PC-3 [JPC-3] — lower, 0.673
- LOU-NH91 — lower, 0.271
- NCI-H647 — lower, 0.167
- NCI-H23 — lower, 0.222
- EMC-BAC-2 — higher, 1.09
- NCI-H2126 — higher, 0.866
- HCC-44 — higher, 1.05
- NCI-H1734 — lower, 0.184
- NCI-H650 — lower, 0.805
- LK-2 — lower, 0.186
- NCI-H2228 — lower, 0.162
- SK-MES-1 — higher, 0.82
- HARA — higher, 0.814
- COR-L23 — lower, 0.469
